The test system of experiment [1] is phosphorylation of Tau at S262 in primary cell culture of rat cortical neurons induced by Okadaic acid. Nature of the experiment: pTau(S262) Cell Biochemical and Functional Assay. It is filed as cell-based. The following applies: Cortical neurone, Okadaic acid 200 nM, 1.5 hrs, read-out: IC50, inhibition of phosphorylation of Tau at S262. As for the experimental part: The cell biochemical potency of the below described MARK inhibitors was evaluated by measuring their ability to block the phosphorylation of Tau at S262 in primary cell culture of rat cortical neurons induced by the action of Okadaic acid.
• 1. Store tissue at 4° C. (1-2 days) until ready to use. • 2. When ready to plate, make up 2 mL of enzymatic solution in Hibernate-Ca containing 1× papain. Filter sterile solution with 0.2 μm filter. • 3. Transfer 2 mL of medium from tissue tube into 15 mL falcon tube while not disturbing tissue. Save media. • 4. Add 2 mL enzymatic media (2) to tissue. Incubate for 30′ at 37° C. • 5. Remove enzymatic solution while not disturbing tissue. Add back 1 mL of media from (3). • 6. Using pipettor with sterile plastic tip, triturate ˜10 times until most of the cells are dispersed. • 7. Let undispersed pieces settle by gravity 1 minute. • 8. Transfer dispersed cells (supernatant) into 15 mL falcon tube containing 1 mL media from (3). Gently mix cells by swirling. • 9. Spin cells at 1,100 rpm for 1 minute. Remove supernatant. • 10. Flick tube to loosen cell pellet. Resuspend cells in 5 mL of NB. • 11. Transfer to new 50 mL falcon tube using 40 μm cell strainer. Rinse 15 mL falcon tube with 5 mL media, add to strainer. • 12. Count cells using hemacytometer. • 13. Dilute cells to 7,000 cells/100 μL/well in NB. • 14. Incubate cells at 37° C. with 5% CO2. • a. 4 DIV: Replace ½ volume (50 μL) NB per well. • b. 6 DIV: Neurite Assay. Tissue Culture/Compound Treatment
Primary rat cortical neurons plated @ 6Kcells/well in 384-well black/clear bottom Poly D-Lysine coated BD Falcon Biocoat plates. • Media: Neurobasal+1× B27+2 mM L-Glutamine (+10% FBS) at time of plating
Cells maintained at 37° C. and 5% CO2 for *6 days in culture, w/½ media change every 3-4 days.
Compound treatment: • Prepare first plate: 200× compound in 100% DMSO with subsequent 3 fold serial dilution • Prepare intermediate plate: 1:40 dilution of 200× compound in media (2.5% DMSO) • Add 5× compound to cell in media at 1:5 dilution (0.5% final DMSO) • Incubate for 30 min. at 37° C.
Okadaic Acid (OA) Treatment: • Dilute OA stock (240 μM in 100% DMSO) to 6× final concentration in media (0.5% DMSO) • Add 6× OA to cells at 1:6 dilution (200 nM final). Incubate for 1.5 hrs. at 37° C. Fix and Immunostaining
Fix: 1% PFA, diluted in PBS • Wash 1× with PBS, residual 30 μl/well.
Add 30 μL/well warmed 2% PFA and incubate 30 min. at RT (1% PFA final)
Wash 3× with PBS, 300/well residual […]

In another experiment the target is recombinant MARK3 enzyme (Homo sapiens (Human), UniProt P27448). In words: MARK 3 Assay (HTRF, Cdc25C biotinylated peptide substrate). It is filed as biochemical. As to conditions: MARK3, 10 μM ATP, 1 μM peptide substrate, 2 hours at 25° C. As for the experimental part: MARK3 activity was assayed in vitro using a Cdc25C biotinylated peptide substrate (Cell Signalling Technologies). The phosphopeptide product was quantitated using a Homogenous Time-Resolved Fluorescence (HTRF) assay system (Park et al., 1999, Anal. Biochem. 269:94-104). The reaction mixture contained 50 mM HEPES/Tris-HCl, pH 7.4; […], 5 mM MgCl2, 0.2 mM NaVO4, 5 mM 3-glycerol phosphate, 0.1% Tween-20, 2 mM dithiothreitol, 0.1% BSA, 10 μM ATP, 1 μM peptide substrate, and 10 nM recombinant MARK3 enzyme (University of Dundee) in a final volume of 12 μL. The buffer additionally contained protease inhibitor cocktail (Roche EDTA-free, 1 tab per 50 ml). The kinase reaction was incubated for 2 hours at 25° C., and then terminated with 3 μl Stop/Detection Buffer (50 mM HEPES, pH 7.0, 16.6 mM EDTA, 0.5M KF, 0.1% Tween-20, 0.1% BSA, 2 μg/ml SLX^ent 665 (CISBIO), and 2 μg/mL Eu^3+ cryptate label antibody (CISBIO)). The reaction was allowed to equilibrate overnight at 0° C., and relative fluorescent units were read on an HTRF enabled plate reader (e.g. TECAN GENios Pro).
recombinant MARK3 enzyme, sequence (P27448 whole entry, species assumed): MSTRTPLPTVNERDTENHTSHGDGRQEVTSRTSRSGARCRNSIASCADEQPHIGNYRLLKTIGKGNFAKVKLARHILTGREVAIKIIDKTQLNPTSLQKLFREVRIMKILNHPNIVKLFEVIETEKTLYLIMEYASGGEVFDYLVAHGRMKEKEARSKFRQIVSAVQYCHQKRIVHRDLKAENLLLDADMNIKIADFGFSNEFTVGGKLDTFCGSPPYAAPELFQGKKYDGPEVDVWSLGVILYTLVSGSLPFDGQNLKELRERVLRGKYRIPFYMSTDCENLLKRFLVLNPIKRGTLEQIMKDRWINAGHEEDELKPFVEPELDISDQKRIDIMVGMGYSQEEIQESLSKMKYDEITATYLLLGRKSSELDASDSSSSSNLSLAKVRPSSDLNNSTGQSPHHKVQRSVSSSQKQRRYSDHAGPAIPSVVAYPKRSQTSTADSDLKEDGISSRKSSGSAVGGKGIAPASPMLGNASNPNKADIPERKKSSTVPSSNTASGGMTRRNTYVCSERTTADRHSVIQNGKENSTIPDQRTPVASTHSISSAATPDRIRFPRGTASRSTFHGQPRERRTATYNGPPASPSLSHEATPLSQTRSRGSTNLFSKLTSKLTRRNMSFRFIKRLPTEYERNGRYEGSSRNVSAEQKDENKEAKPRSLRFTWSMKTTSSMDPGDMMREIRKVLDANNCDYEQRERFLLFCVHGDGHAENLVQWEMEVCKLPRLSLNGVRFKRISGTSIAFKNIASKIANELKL
Inhibitor compounds were assayed in the reaction described above to determine compound IC50s. Aliquots of compound dissolved in DMSO were added to the reaction wells in a third-log dilution series covering a range of 1 nM to 10 μM. Relative phospho substrate formation, read as HTRF fluorescence units, was measured over the range of compound concentrations and a titration curve generated.
Background: Time-resolved FRET reads energy transfer from a long-lived donor to a nearby acceptor.

From patent US8592425B2, “Imidazo[1,2-a]pyridines and imidazo[1,2-b]pyridazines as mark inhibitors” (Merck Sharp & Dohme Corp., priority 2009, dated 2013) come the findings set out here.

Broadly, the IC50 is the concentration that gives 50% inhibition.

Structures can show the parent of a compound that is named as a salt.

`Cc1sc(C(=O)N[C@H]2CCS(=O)(=O)C[C@H]2N)cc1-c1cnc2cccnn12` (relative stereo) [Example 10, N-[cis-3-amino-1,1-dioxidotetrahydro-2H-thiopyran-4-yl]-4-(imidazo[1,2-b]pyridazin-3-yl)-5-methylthiophene-2-carboxamide]: the IC50 in experiment [1] is greater than 10000 nM. For the compound `Cc1sc(C(=O)N[C@@H]2[C@H](N)CCCC2(F)F)cc1-c1cnc2cccnn12` [Example 1, N-[(1R,6R)-6-Amino-2,2-difluorocyclohexyl]-4-(imidazo[1,2-b]pyridazin-3-yl)-5-methylthiophene-2-carboxamide], at recombinant MARK3 enzyme, the IC50 was found to be 20 nM. On to `N[C@@H]1CCCC(F)(F)[C@@H]1NC(=O)c1cc(-c2cnc3cc(-c4ccc(F)cc4)cnn23)cs1` [Example 8, (1R,2R)-3,3-difluoro-2-[({4-[7-(4-fluorophenyl)imidazo[1,2-b]pyridazin-3-yl]thiophen-2-yl}carbonyl)amino]cyclohex-anaminium trifluoroacetate], for which, at recombinant MARK3 enzyme, the half-maximal inhibitory concentration (IC50) worked out at 0.5 nM. Turning to `Cc1sc(C(=O)NC2CS(=O)(=O)CC[C@H]2N)cc1-c1cnc2cccnn12` (stereo partly drawn) [Example 9], the IC50 in experiment [1] is greater than 10000 nM. Turning to `N[C@H]1CCCC(F)(F)[C@@H]1NC(=O)c1cc(-c2cnc3ccccn23)cs1` [Example 14, N-[(1R,6S)-6-amino-2,2-difluorocyclohexyl]-4-(imidazo[1,2-a]pyridin-3-yl)thiophene-2-carboxamide], the IC50 on recombinant MARK3 enzyme stood at 15 nM. Take `Cc1sc(C(=O)N[C@@H]2[C@H](N)CCCC2(F)F)cc1-c1cnc2ccccn12` [Example 15, N-[(1R,6R)-6-amino-2,2-difluorocyclohexyl]-4-(imidazo[1,2-a]pyridin-3-yl)-5-methylthiophene-2-carboxamide]: the IC50 in experiment [1] is greater than 10000 nM. Turning to `N[C@@H]1CCCC(F)(F)[C@@H]1NC(=O)c1cc(-c2cnc3cccnn23)c(Cc2ccccc2)s1` [Example 19, N-[(1R,6R)-6-amino-2,2-difluorocyclohexyl]-5-benzyl-4-(imidazo[1,2-b]pyridazin-3-yl)thiophene-2-carboxamide], the IC50 in experiment [1] was greater than 10000 nM. Turning to `CCc1sc(C(=O)N[C@@H]2[C@H](N)CCCC2(F)F)cc1-c1cnc2cc(C(F)(F)F)cnn12` [Example 24, N-[(1R,6R)-6-amino-2,2-difluorocyclohexyl]-5-ethyl-4-[7-(trifluoromethyl)imidazo[1,2-b]pyridazin-3-yl]thiophene-2-carboxamide], the half-maximal inhibitory concentration (IC50) on recombinant MARK3 enzyme came out at 140 nM.

On to `N[C@H]1CCCC(F)(F)[C@@H]1NC(=O)c1nc(-c2cnc3ccccn23)c(Cl)s1` [Example 29, N-[(1R,6S)-6-Amino-2,2-difluorocyclohexyl]-5-chloro-4-(imidazo[1,2-a]pyridin-3-yl)-1,3-thiazole-2-carboxamide], for which, on recombinant MARK3 enzyme, the IC50 worked out at 720 nM.
